Assay results: patent US20250230193A1, “CYCLIC COMPOUND HAVING SELECTIVE KRAS INHIBITORY EFFECT ON HRAS AND NRAS” (CHUGAI SEIYAKU KABUSHIKI KAISHA, priority 2022, published 2025)

Assays:
[1] = molecular target: GDP-bound NRAS wild-type protein (Homo sapiens, UniProt P01111); test: Binding to NRAS by surface plasmon resonance (SPR), Single Cycle Kinetics
[2] = molecular target: GDP-bound HRAS wild-type protein (Homo sapiens, UniProt P01112); test: Binding to HRAS by surface plasmon resonance (SPR), Single Cycle Kinetics
GDP-bound HRAS wild-type protein, sequence (P01112 whole entry): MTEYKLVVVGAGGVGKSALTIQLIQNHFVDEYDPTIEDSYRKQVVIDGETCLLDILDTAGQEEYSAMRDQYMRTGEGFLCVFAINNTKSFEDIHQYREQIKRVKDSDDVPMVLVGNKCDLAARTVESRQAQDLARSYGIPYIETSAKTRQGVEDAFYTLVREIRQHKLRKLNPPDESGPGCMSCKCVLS

[3] = SPR, GDP-bound NRAS wild-type vs GDP-bound KRAS wild-type
[4] = SPR, GDP-bound HRAS wild-type vs GDP-bound KRAS wild-type

GDP-bound NRAS wild-type protein, sequence (P01111 whole entry): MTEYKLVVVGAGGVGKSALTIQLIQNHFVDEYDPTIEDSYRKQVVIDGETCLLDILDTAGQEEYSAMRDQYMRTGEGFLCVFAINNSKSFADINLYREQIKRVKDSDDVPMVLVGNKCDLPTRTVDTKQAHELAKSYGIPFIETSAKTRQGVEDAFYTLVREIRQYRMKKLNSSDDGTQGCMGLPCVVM

**Q.** `CCCOC[C@H]1C(=O)N[C@@H]([C@@H](C)CC)C(=O)N(C)CC(=O)N(C)[C@H]2C/C=C\CCN(C2=O)[C@@H](CC2CCC(F)(F)CC2)C(=O)N(C)CC(=O)N[C@@H](CCc2ccc(C(F)(F)F)c(OC)c2)C(=O)N2C[C@H](OCC)C[C@H]2C(=O)NC2(CC(C)(C)C2)C(=O)N(C)[C@@H](C(CC)CC)C(=O)N(C)[C@H](C(=O)N(C)C)CC(=O)N1C` [PP2464] was tested. Which “NRAS/KRAS (ratio of KD value with respect to NRAS to KD value with respect to KRAS)” value [1, 3] did it give?
**A.** The value was “A (a compound having 10 or more and less than 20 is denoted as A)”.

**Q.** What about the “HRAS/KRAS (ratio of KD value with respect to HRAS to KD value with respect to KRAS)” value [2, 4] of the same compound?
**A.** The value was “A (a compound having 10 or more and less than 20 is denoted as A)”.

**Q.** For `CCC[C@H]1C(=O)N[C@@H]([C@@H](C)CC)C(=O)N(C)CC(=O)N(C)[C@H]2C/C=C\CCN(C2=O)[C@@H](Cc2ccc(C)cc2)C(=O)N(C)CC(=O)N[C@@H](CCc2ccc(C(F)(F)F)c(Cl)c2)C(=O)N2C[C@H](OCC)C[C@H]2C(=O)NC2(CC(C)(C)C2)C(=O)N(C)[C@@H](CC(F)(F)F)C(=O)N(C)[C@H](C(=O)N(C)C)CC(=O)N1C` [PP2226], which “NRAS/KRAS (ratio of KD value with respect to NRAS to KD value with respect to KRAS)” value [1, 3] is on record?
**A.** The value was “A (a compound having 10 or more and less than 20 is denoted as A)”.

**Q.** What about the “HRAS/KRAS (ratio of KD value with respect to HRAS to KD value with respect to KRAS)” value [2, 4] of the same compound?
**A.** Its value is “A (a compound having 10 or more and less than 20 is denoted as A)”.

**Q.** `CCCOC[C@H]1C(=O)N[C@@H]([C@@H](C)CC)C(=O)N(C)CC(=O)N(C)[C@H]2C/C=C\CCN(C2=O)[C@@H](Cc2ccc(C(F)(F)F)cc2)C(=O)N(C)CC(=O)N[C@@H](CCc2ccc(C(F)(F)F)c(OC)c2)C(=O)N2C[C@@H](C)C[C@H]2C(=O)NC2(CC(C)(C)C2)C(=O)N(C)[C@@H](C2CCCC2)C(=O)N(C)[C@H](C(=O)N(C)C)CC(=O)N1C` [PP1997] was tested. Which “NRAS/KRAS (ratio of KD value for NRAS to KD value for KRAS)” value ([1]; KD ratio, GDP-bound NRAS wild-type vs GDP-bound KRAS wild-type, SPR) did it give?
**A.** Its value is “A (a compound having 10 or more and less than 20 is denoted as A)”.

**Q.** What about the “HRAS/KRAS (ratio of KD value for HRAS to KD value for KRAS)” value ([2]; KD ratio, GDP-bound HRAS wild-type vs GDP-bound KRAS wild-type, SPR) of the same compound?
**A.** The value was “B (a compound having 3 or more and less than 10 is denoted as B)”.

**Q.** Which “NRAS/KRAS (ratio of KD value with respect to NRAS to KD value with respect to KRAS)” value [1, 3] does the source give for `CCC[C@H]1C(=O)N[C@@H](CC(C)C)C(=O)N(C2CC2)CC(=O)N(C)[C@H]2C/C=C\CCN(C2=O)[C@@H](Cc2ccc(C)cc2)C(=O)N(C)CC(=O)N[C@@H](CCc2ccc(C(F)(F)F)c(OC)c2)C(=O)N2C[C@H](OCC)C[C@H]2C(=O)NC2(CC(C)(C)C2)C(=O)N(C)[C@@H](C2CCCC2)C(=O)N(C)[C@H](C(=O)N(C)C)CC(=O)N1C` [PP2510] here?
**A.** The value was “A (a compound having 10 or more and less than 20 is denoted as A)”.

**Q.** And the “HRAS/KRAS (ratio of KD value with respect to HRAS to KD value with respect to KRAS)” value [2, 4]?
**A.** The value was “B (a compound having 3 or more and less than 10 is denoted as B)”.

**Q.** `CCC[C@H]1C(=O)N[C@@H]([C@@H](C)CC)C(=O)N(C2CC2)CC(=O)N(C)[C@H]2C/C=C\CCN(C2=O)[C@@H](Cc2ccc(C(F)(F)F)cc2)C(=O)N(C)CC(=O)N[C@@H](CCc2ccc(C(F)(F)F)c(OC)c2)C(=O)N2C[C@H](OCC)C[C@H]2C(=O)NC2(CC(C)(C)C2)C(=O)N(C)[C@@H](CC2CC2)C(=O)N(C)[C@H](C(=O)N(C)C)CC(=O)N1C` [PP2815] was tested. Which “NRAS/KRAS (ratio of KD value with respect to GDP-bound NRAS wild-type protein to KD value with respect to KRAS)” value ([1]; class symbols) did it give?
**A.** The value was “A (a compound having 10 or more and less than 20 is denoted as A)”.

**Q.** And the “HRAS/KRAS (ratio of KD value with respect to GDP-bound HRAS wild-type protein to KD value with respect to KRAS)” value ([2]; class symbols)?
**A.** The value was “A (a compound having 10 or more and less than 20 is denoted as A)”.

**Q.** With `CCO[C@@H]1C[C@H]2C(=O)NC3(CCC3)C(=O)N(C)[C@@H](C3CCCC3)C(=O)N(CC)[C@H](C(=O)N(C)C)CC(=O)N(C)[C@@H](CC)C(=O)N[C@@H]([C@@H](C)CC)C(=O)N(C)CC(=O)N(C)[C@H]3CCCCN(C3=O)[C@@H](Cc3ccc(C(F)(F)F)cc3)C(=O)N(C)CC(=O)N[C@@H](CCc3cc(F)c(C(F)(F)F)c(F)c3)C(=O)N2C1` [PP0643] as the compound, how does the “NRAS/KRAS (ratio of KD value with respect to GDP-bound NRAS wild-type protein to KD value with respect to KRAS)” value ([1]; SPR) read?
**A.** The value was “C (A compound having a KD ratio of 0.1 or more and less than 3 is denoted as C)”.

**Q.** And the “HRAS/KRAS (ratio of KD value with respect to GDP-bound HRAS wild-type protein to KD value with respect to KRAS)” value ([2]; SPR)?
**A.** The value was “B (a compound having 3 or more and less than 10 is denoted as B)”.

**Q.** `CC[C@H](C)[C@@H]1NC(=O)[C@H](CC(C)C)N(C)C(=O)C[C@@H](C(=O)N2CCCC2)N(C)C(=O)[C@H](C2CCCC2)N(C)C(=O)C2(CCCC2)NC(=O)[C@@H]2CCCN2C(=O)[C@H](CCc2cc(F)c(C(F)(F)F)c(F)c2)NC(=O)CN(C)C(=O)[C@H](Cc2ccc(C(F)(F)F)cc2)N2CCCC[C@@H](C2=O)N(C)C(=O)CN(C)C1=O` [PP0571] was tested. Which “NRAS/KRAS (ratio of KD value with respect to GDP-bound NRAS wild-type protein to KD value with respect to KRAS)” value ([1]; SPR) did it give?
**A.** The value was “B (a compound having 3 or more and less than 10 is denoted as B)”.

**Q.** And the “HRAS/KRAS (ratio of KD value with respect to GDP-bound HRAS wild-type protein to KD value with respect to KRAS)” value ([2]; SPR)?
**A.** The value was “B (a compound having 3 or more and less than 10 is denoted as B)”.
